The values that follow come from ChEMBL document CHEMBL4014275, “Discovery of benzofuran-3(2H)-one derivatives as novel DRAK2 inhibitors that protect islet β-cells from apoptosis” (Eur J Med Chem, 2017).

A word on the pIC50: it is the IC50 on a negative log10 scale, so that one unit is a factor of ten. One may read the pKd as the negative decadic logarithm of the Kd, by convention in mol/L.

Assay [1] has as its target T1, Serine/threonine-protein kinase 17B (Homo sapiens, UniProt O94768).
T1 sequence (O94768 whole entry): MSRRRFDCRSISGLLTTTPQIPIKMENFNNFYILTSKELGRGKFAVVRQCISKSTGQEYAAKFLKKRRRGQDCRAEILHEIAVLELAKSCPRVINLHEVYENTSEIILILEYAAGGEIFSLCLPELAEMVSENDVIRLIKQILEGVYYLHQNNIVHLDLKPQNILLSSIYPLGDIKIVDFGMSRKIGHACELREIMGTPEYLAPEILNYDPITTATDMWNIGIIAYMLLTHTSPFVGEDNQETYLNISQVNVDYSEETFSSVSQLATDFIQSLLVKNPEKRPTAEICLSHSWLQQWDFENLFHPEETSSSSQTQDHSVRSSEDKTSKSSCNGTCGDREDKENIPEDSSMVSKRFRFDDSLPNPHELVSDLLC
Kind of assay: Inhibition of DRAK2 (unknown origin).

Assay [2] addresses T2, Serine/threonine-protein kinase 17A (Homo sapiens, UniProt Q9UEE5).
T2 sequence (Q9UEE5 whole entry): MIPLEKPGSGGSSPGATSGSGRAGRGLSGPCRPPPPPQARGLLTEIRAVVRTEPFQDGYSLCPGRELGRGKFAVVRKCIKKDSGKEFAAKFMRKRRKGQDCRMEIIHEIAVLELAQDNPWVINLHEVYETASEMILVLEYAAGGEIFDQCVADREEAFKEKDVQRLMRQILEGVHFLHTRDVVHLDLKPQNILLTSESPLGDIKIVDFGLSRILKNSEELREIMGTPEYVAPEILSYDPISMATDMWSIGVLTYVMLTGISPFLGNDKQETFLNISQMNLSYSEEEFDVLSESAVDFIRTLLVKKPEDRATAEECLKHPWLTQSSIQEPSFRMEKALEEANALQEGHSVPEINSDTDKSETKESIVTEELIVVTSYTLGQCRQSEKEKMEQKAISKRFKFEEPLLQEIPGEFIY
Briefly: Binding affinity to DRAK1 (unknown origin).

Assay [3] concerns the target Death-associated protein kinase 1 (Homo sapiens, UniProt P53355). Briefly: Binding affinity to DAPK1 (unknown origin).
The next assay deals with T3, Aurora kinase A (Homo sapiens, UniProt O14965).
T3 sequence (O14965 whole entry): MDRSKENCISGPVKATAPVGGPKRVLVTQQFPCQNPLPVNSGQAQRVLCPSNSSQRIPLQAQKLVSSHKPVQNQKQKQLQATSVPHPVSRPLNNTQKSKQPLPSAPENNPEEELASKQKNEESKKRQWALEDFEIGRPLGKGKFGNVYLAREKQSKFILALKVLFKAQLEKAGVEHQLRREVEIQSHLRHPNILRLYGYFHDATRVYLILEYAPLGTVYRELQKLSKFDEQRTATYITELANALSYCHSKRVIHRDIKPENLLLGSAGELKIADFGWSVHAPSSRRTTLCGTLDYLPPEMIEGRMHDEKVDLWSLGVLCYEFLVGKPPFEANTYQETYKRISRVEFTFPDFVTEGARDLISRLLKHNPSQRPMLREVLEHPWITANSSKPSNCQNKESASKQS
Briefly: Inhibition of human AURORA-A.

The target of assay [4] is Tyrosine-protein kinase Blk (Homo sapiens, UniProt P51451). Briefly: Inhibition of human BLK.
The target in assay [5] is T4, Inhibitor of nuclear factor kappa-B kinase subunit beta (Homo sapiens, UniProt O14920).
T4 sequence (O14920 whole entry): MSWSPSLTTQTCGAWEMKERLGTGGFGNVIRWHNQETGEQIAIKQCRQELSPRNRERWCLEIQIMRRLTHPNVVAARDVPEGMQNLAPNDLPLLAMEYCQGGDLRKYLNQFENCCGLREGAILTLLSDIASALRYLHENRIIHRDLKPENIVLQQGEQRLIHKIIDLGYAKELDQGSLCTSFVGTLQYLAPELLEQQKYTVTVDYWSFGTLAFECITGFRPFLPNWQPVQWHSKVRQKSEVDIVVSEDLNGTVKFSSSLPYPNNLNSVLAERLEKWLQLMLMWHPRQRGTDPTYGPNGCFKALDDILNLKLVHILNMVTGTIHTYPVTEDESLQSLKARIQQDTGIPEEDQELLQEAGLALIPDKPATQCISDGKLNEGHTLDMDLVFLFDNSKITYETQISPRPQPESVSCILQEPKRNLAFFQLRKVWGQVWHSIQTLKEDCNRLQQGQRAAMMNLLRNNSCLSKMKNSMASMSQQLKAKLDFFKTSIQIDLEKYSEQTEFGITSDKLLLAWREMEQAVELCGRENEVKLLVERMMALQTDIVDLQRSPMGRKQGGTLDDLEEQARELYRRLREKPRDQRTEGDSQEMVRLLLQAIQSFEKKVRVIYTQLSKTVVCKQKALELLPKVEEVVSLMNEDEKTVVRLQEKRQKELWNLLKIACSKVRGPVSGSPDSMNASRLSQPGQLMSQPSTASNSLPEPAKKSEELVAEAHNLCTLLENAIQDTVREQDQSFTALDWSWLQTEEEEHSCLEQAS
Kind of assay: Inhibition of human IKKB.

For assay [6], the target named is Death-associated protein kinase 2 (Homo sapiens, UniProt Q9UIK4). Briefly: Inhibition of human DAPK2.
Assay [7] has as its target Glycogen synthase kinase-3 beta (Homo sapiens, UniProt P49841). Briefly: Inhibition of human GSK3beta.
In assay [8] the target is Death-associated protein kinase 3 (Homo sapiens, UniProt O43293). Kind of assay: Inhibition of human DAPK3.
Assay [9] deals with Tyrosine-protein kinase BTK (Homo sapiens, UniProt Q06187). Kind of assay: Inhibition of human BTK.
For assay [10], the target named is T2, Serine/threonine-protein kinase 17A. Kind of assay: Inhibition of human DRAK1.
Assay [11] deals with T1, Serine/threonine-protein kinase 17B. Kind of assay: Inhibition of recombinant GST-tagged DRAK2 (unknown origin) autophosphorylation after 2 hrs by ADP-glo assay.

pIC50, pKd: −log10 of the molar value.

Chain of Glycogen synthase kinase-3 beta (P49841 whole entry): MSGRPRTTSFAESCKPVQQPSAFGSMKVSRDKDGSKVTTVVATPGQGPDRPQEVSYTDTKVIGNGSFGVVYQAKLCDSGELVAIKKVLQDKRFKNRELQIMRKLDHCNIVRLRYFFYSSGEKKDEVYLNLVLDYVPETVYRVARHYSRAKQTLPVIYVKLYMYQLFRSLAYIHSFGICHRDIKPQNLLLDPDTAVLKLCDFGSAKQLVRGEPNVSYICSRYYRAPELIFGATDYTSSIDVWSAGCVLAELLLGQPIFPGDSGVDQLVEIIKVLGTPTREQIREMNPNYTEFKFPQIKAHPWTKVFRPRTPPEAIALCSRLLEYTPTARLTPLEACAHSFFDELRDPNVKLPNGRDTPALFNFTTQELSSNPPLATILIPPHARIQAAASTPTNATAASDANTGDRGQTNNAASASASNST
Chain of Death-associated protein kinase 3 (O43293 whole entry): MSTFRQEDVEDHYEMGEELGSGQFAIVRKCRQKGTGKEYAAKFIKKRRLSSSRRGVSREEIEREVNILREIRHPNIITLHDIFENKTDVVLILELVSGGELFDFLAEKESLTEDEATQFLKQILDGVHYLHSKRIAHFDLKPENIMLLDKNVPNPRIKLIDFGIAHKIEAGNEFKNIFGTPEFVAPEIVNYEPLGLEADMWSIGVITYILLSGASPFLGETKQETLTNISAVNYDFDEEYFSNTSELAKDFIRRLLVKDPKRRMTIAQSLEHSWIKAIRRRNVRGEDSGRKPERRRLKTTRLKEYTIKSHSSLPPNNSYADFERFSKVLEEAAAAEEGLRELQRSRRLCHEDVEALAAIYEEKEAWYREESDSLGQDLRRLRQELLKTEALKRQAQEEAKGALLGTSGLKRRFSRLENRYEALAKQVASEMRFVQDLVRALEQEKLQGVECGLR
Chain of Tyrosine-protein kinase BTK (Q06187 whole entry): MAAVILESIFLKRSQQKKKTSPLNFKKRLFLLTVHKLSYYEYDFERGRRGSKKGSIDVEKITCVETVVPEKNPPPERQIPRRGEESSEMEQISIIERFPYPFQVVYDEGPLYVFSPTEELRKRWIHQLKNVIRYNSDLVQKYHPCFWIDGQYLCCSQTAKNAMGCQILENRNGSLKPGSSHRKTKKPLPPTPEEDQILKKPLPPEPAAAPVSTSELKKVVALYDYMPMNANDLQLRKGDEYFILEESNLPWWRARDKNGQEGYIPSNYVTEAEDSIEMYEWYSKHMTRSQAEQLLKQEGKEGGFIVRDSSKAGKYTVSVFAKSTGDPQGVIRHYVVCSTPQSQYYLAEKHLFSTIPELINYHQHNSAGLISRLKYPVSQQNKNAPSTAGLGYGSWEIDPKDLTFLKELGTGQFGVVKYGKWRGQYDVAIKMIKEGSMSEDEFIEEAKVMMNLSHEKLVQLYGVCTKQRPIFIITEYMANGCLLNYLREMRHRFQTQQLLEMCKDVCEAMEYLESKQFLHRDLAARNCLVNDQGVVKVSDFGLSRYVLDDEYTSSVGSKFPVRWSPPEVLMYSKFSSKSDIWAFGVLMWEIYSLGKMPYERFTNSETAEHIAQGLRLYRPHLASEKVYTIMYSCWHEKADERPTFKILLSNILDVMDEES
Chain of Death-associated protein kinase 2 (Q9UIK4 whole entry): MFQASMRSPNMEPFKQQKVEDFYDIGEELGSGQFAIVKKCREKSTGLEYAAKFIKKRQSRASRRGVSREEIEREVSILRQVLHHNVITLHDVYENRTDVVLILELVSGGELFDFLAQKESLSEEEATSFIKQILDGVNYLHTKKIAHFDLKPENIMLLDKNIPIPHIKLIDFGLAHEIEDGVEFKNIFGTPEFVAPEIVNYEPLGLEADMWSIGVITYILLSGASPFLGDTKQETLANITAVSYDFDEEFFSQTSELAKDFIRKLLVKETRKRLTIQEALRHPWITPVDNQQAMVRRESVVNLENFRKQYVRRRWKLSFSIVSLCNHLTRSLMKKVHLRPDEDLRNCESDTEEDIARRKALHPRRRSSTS
Chain of Death-associated protein kinase 1 (P53355 whole entry): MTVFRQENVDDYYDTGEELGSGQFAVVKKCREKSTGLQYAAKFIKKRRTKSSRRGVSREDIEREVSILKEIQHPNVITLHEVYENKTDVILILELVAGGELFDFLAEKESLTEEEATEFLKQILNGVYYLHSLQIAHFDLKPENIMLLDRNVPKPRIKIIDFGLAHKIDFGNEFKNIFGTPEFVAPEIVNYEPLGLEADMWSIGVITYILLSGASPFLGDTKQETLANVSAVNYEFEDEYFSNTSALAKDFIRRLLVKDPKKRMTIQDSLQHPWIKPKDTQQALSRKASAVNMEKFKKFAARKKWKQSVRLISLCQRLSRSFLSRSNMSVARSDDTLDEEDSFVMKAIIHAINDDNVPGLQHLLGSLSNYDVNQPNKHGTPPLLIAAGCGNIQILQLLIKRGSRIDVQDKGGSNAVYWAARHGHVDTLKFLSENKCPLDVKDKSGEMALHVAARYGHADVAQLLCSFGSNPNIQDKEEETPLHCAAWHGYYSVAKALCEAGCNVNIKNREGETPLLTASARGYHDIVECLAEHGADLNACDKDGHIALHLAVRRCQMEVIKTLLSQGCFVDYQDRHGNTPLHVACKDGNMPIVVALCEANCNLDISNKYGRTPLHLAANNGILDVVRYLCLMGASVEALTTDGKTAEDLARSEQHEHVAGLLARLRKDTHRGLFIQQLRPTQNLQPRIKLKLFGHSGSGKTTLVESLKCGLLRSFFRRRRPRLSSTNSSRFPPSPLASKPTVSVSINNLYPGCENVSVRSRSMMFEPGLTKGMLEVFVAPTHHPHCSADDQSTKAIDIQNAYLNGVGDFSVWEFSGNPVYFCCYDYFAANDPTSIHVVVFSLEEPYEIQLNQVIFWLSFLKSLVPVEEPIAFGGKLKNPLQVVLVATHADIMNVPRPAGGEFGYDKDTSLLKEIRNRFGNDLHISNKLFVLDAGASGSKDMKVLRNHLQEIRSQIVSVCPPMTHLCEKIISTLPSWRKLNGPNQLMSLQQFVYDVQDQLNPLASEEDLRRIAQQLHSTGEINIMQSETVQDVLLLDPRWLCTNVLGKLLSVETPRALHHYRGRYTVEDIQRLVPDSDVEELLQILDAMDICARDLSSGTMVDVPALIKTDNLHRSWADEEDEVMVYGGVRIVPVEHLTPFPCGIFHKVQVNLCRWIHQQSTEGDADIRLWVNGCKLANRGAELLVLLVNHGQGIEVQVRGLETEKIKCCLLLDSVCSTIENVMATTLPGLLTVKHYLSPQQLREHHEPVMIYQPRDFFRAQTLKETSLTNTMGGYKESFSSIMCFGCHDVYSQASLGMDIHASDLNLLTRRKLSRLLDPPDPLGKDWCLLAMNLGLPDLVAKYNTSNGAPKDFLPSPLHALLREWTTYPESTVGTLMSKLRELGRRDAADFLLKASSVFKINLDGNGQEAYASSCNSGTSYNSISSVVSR
Chain of Tyrosine-protein kinase Blk (P51451 whole entry): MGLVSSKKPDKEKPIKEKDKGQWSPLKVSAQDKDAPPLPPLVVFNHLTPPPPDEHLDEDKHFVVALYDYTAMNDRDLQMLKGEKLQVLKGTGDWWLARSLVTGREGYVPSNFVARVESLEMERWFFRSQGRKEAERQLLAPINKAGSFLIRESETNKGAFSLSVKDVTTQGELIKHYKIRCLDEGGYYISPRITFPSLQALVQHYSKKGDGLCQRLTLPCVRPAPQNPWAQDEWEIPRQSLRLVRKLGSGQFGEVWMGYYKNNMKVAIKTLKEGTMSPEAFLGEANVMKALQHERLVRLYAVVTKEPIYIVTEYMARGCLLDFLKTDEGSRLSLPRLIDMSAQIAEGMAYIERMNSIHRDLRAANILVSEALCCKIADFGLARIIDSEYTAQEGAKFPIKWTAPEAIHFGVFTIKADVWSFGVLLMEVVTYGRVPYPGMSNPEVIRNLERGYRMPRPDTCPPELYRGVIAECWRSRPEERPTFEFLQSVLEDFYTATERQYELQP

`Nc1c(-c2n[nH]c(=S)o2)sc2ncc(-c3ccsc3)cc12` had a negative-log IC50 (pIC50) in assay [1] of 7.54. Also, the negative logarithm of the Kd (pKd) in assay [2] was 7.00; in assay [3] it was 7.27.

On to `CCOc1cc(/C=C2\Oc3ccc(OC)cc3C2=O)ccc1O`, for which the pIC50 is 5.00 against Aurora kinase A; 5.28 in assay [4]; 5.21 in assay [5]; 4.64 in assay [6]; 5.30 in assay [7]; 4.72 in assay [8]. Moreover, the negative logarithm of the IC50 (pIC50) in assay [9] is 5.30; in [10] it was 5.85; in assay [11], 6.48.
